We go through nine compounds from US11827616B2, “Heterocyclic compounds as pesticides” (Discovery Purchaser Corporation, priority 2018, dated 2023).

Holding throughout (format): in vivo
For experiment [1], the system named is Ctenocephalides felis. In words: Ctenocephalides felis in vitro contact test with adult cat fleas. The note with it: application rate 5 μg/cm^2 (=500 g/ha); after 48 h. Here is the method:
Ctenocephalides felis—In Vitro Contact Tests with Adult Cat Fleas
(§1) For the coating of the test tubes, 9 mg of active compound are first dissolved in 1 ml of acetone p.a. and then diluted to the desired concentration with acetone p.a. 250 μl of the solution are distributed homogeneously on the inner walls and the base of a 25 ml glass tube by turning and rocking on an orbital shaker (rocking rotation at 30 rpm for 2 h). With 900 ppm of active compound solution and internal surface area 44.7 cm^2, given homogeneous distribution, an area-based dose of 5 μg/cm^2 is achieved.
After the solvent has evaporated off, the tubes are populated with 5-10 adult cat fleas (Ctenocephalides felis), sealed with a perforated plastic lid and incubated in a horizontal position at room temperature and ambient humidity. After 48 h, efficacy is determined. To this end, the tubes are stood upright and the fleas are knocked to the base of the tube. Fleas which remain motionless at the base or move in an uncoordinated manner are considered to be dead or moribund.
100% efficacy means that all the fleas were dead or moribund. 0% efficacy means that no fleas were harmed.

The test system of another experiment is Tetranychus urticae. Description: Tetranychus urticae spray test, OP-resistant. Conditions: application rate 500 g/ha; after 6 days. Here is the method:
Tetranychus urticae—Spray Test, OP-Resistant
Solvent: 78.0 Parts by Weight of Acetone • • 1.5 parts by weight of dimethylformamide
(§2) Emulsifier: alkylaryl polyglycol ether
(§3) To produce a suitable active compound formulation, 1 part by weight of active compound is dissolved with the specified parts by weight of solvent and made up to the desired concentration with water containing an emulsifier concentration of 1000 ppm. To produce further test concentrations, the formulation is diluted with emulsifier-containing water.
Discs of bean leaves (Phaseolus vulgaris) infested with all stages of the greenhouse red spider mite (Tetranychus urticae) are sprayed with an active compound formulation of the desired concentration.
After 6 days, the efficacy in % is determined. 100% means that all the spider mites have been killed; 0% means that no spider mites have been killed.

The subject of a further experiment is Phaedon cochleariae. In words: Phaedon cochleariae spray test. Conditions: for pest or weed control at 500 g/ha: Phaedon cochleariae, 168 h, read-out: efficacy. As to the method:
Phaedon cochleariae—Spray Test
(§4) Solvent: 78.0 parts by weight of acetone • • 1.5 parts by weight of dimethylformamide
as §2, §3
Discs of Chinese cabbage leaves (Brassica pekinensis) are sprayed with an active compound formulation of the desired concentration and, after drying, populated with larvae of the mustard beetle (Phaedon cochleariae).
After 7 days, the efficacy in % is determined. 100% means that all the beetle larvae have been killed; 0% means that no beetle larvae have been killed.

The subject of a further experiment is Rhipicephalus sanguineus. Description: Rhipicephalus sanguineus in vitro contact test with adult brown dog ticks. The note with it: application rate 5 μg/cm^2 (=500 g/ha); after 48 h. Here is the method: Rhipicephalus sanguineus—In Vitro Contact Tests with Adult Brown Dog Ticks
as §1
After the solvent has evaporated off, the tubes are populated with 5-10 adult dog ticks (Rhipicephalus sanguineus), sealed with a perforated plastic lid and incubated in a horizontal position in the dark at room temperature and ambient humidity. After 48 h, efficacy is determined. To this end, the ticks are knocked to the base of the tube and incubated on a hotplate at 45-50° C. for not more than 5 min. Ticks which remain motionless on the base or move in such an uncoordinated manner that they are unable to deliberately avoid the heat by climbing upwards are considered to be dead or moribund.
An efficacy of 100% means that all the ticks were dead or moribund. 0% efficacy means that none of the ticks were harmed.

Another experiment concerns Spodoptera frugiperda. Description: Spodoptera frugiperda spray test. The note with it: for pest or weed control at 500 g/ha: Spodoptera frugiperda, 168 h, read-out: efficacy. Here is the method: Spodoptera frugiperda—Spray Test
as §4, §2, §3
Leaf discs of maize (Zea mays) are sprayed with an active compound formulation of the desired concentration and, after drying, populated with caterpillars of the fall armyworm (Spodoptera frugiperda).
After 7 days, the efficacy in % is determined. 100% means that all the caterpillars have been killed; 0% means that no caterpillar has been killed.

Experiment [2] deals with Ctenocephalides felis. In words: Ctenocephalides felis oral test. The note with it: application rate 100 ppm in citrated cattle blood; after 2 days. Here is the method: Ctenocephalides felis—Oral Test
(§5) Solvent: dimethyl sulfoxide
To produce a suitable active compound formulation, 10 mg of active compound are mixed with 0.5 ml of dimethyl sulfoxide. Dilution with citrated cattle blood gives the desired concentration.
About 20 unfed adult cat fleas (Ctenocephalides felis) are placed into a chamber which is closed at the top and bottom with gauze. A metal cylinder whose bottom end is closed with parafilm is placed onto the chamber. The cylinder contains the blood/active compound formulation, which can be imbibed by the fleas through the parafilm membrane.
After 2 days, the kill in % is determined. 100% means that all of the fleas have been killed; 0% means that none of the fleas have been killed.

Another experiment deals with Lucilia cuprina. In words: Lucilia cuprina test. The note with it: application rate 100 ppm; L1 larvae; after 2 days. Here is the method:
as §5
To produce a suitable active compound formulation, 10 mg of active compound are mixed with 0.5 ml of dimethyl sulfoxide, and the concentrate is diluted with water to the desired concentration.
About 20 L1 larvae of the Australian sheep blowfly (Lucilia cuprina) are transferred into a test vessel containing minced horsemeat and the active compound formulation of the desired concentration.
After 2 days, the kill in % is determined. 100% means that all the larvae have been killed; 0% means that no larvae have been killed.

In the next experiment the test system is Boophilus microplus. In words: Boophilus microplus injection test. Conditions: for pest or weed control at 0.02 mg: Rhipicephalus microplus, 168 h. Here is the method: Boophilus microplus—Injection Test
as §5
To produce a suitable active compound formulation, 10 mg of active compound are mixed with 0.5 ml of solvent and the concentrate is diluted to the desired concentration with solvent.
1 μl of the active compound solution is injected into the abdomen of 5 engorged adult female cattle ticks (Boophilus microplus). The animals are transferred into dishes and kept in a climate-controlled room.
Efficacy is assessed after 7 days by laying of fertile eggs. Eggs which are not visibly fertile are stored in a climate-controlled cabinet until the larvae hatch after about 42 days. An efficacy of 100% means that none of the ticks has laid any fertile eggs; 0% means that all the eggs are fertile.

The test system of experiment [3] is Anopheles funestus strain FUMOZ-R. Description: Anopheles test (ANPHFU surface treatment). The note with it: read-out: efficacy (mortality in %). Here is the method:
Anopheles Test (ANPHFU Surface Treatment)
(§6) Solvent: acetone+2000 ppm rapeseed oil methyl ester (RME)
To produce an appropriate active compound formulation, the active compound is dissolved in the solvent (2 mg/ml). The active compound formulation is pipetted onto a glazed tile and, after it has dried off, adult mosquitoes of the species Anopheles funestus strain FUMOZ-R (Hunt et al., Med Vet Entomol. 2005 Sep.; 19 (3):271-5) are placed onto the treated tile. The exposure time is 30 minutes.
(§7) 24 hours after contact with the treated surface, mortality in % is determined. 100% means that all mosquitoes have been killed; 0% means that none of the mosquitoes have been killed.

Experiment [4] has as its system Anopheles gambiae strain RSPH (homozygot kdr). In words: Anopheles test (ANPHGB surface treatment). The note with it: read-out: efficacy (mortality in %). Here is the method:
Anopheles Test (ANPHGB Surface Treatment)
as §6
To produce an appropriate active compound formulation, the active compound is dissolved in the solvent (2 mg/ml). The active compound formulation is pipetted onto a glazed tile and, after it has dried off, adult mosquitoes of the species Anopheles gambiae strain RSPH (homozygot kdr) are placed onto the treated tile. The exposure time is 30 minutes.
as §7

The test system of experiment [5] is Aedes aegypti strain MONHEIM. Description: Aedes test (AEDSAE surface treatment). The note with it: read-out: efficacy (mortality in %). Here is the method: Aedes Test (AEDSAE Surface Treatment)
as §6
To produce an appropriate active compound formulation, the active compound is dissolved in the solvent (2 mg/ml). The active compound formulation is pipetted onto a glazed tile and, after it has dried off, adult mosquitoes of the species Aedes aegypti strain MONHEIM are placed onto the treated tile. The exposure time is 30 minutes. 24 hours after contact with the treated surface, mortality in % is determined. 100% means that all mosquitoes have been killed; 0% means that none of the mosquitoes have been killed.

Setting [6] is: application rate 500 g/ha, after 7 days.
The mark [7] stands for this setting: application rate 20 μg/animal, after 7 days.
Setting [8] is: application rate 20 mg/m^2, exposure 30 minutes, 24 hours after contact.
Setting [9] is: read-out: efficacy (laying of fertile eggs), application rate 20 μg/animal, after 7 days.

Where two headings read alike, the source gives them in different places.

As to `CON(C)CCOc1cnc(COc2ccc(Cl)c(-c3ccccc3)c2)c(F)c1` [Example 63], the “efficacy (fleas dead or moribund)” value with Ctenocephalides felis [1] was determined as 100%. Moreover, the efficacy turned out to be 100% with Tetranychus urticae; 100% in the experiment on Phaedon cochleariae (application rate 100 g/ha, after 7 days); 100% in the experiment with Spodoptera frugiperda (setting [6]). Further, the “efficacy (ticks dead or moribund)” value with Rhipicephalus sanguineus came to 100%. Besides, the “efficacy (kill in %)” value is 95% with Ctenocephalides felis [2] and 100% in the experiment with Lucilia cuprina. The “efficacy (laying of fertile eggs)” value in the experiment with Boophilus microplus (setting [7]) was 100%.
As a reminder, the mortality is the share of the test organisms that died. Regarding `CON(C)CCOc1ccc(COc2ccc(Cl)c3ccccc23)c(F)n1` [Example 3, 2-[(5-{[(4-chloro-1-naphthyl)oxy]methyl}-6-fluoropyridin-2-yl)oxy]-N-methoxy-N-methylethanamine], the mortality at 20 mg/m2 in experiment [3] and in experiment [4] was 80 to 100% throughout. Moreover, the mortality at 100 mg/m2 in [3], in [4] and in experiment [5] was 80 to 100% throughout.
On to `CCOc1nc(COc2cccc3c(Cl)c(Cl)ccc23)ccc1OCCN(C)OC` [Example 97, 2-[(6-{[(5,6-dichloro-1-naphthyl)oxy]methyl}-2-ethoxypyridin-3-yl)oxy]-N-methoxy-N-methylethanamine], for which the mortality at 20 mg/m2 in experiment [5] (setting [8]) was 80 to 100%.
Turning to `COc1cc(OCCN(C)OC)cnc1COc1ccc2oc3ccccc3c2c1` [Example 90, 2-({6-[(dibenzo[b,d]furan-2-yloxy)methyl]-5-methoxypyridin-3-yl}oxy)-N-methoxy-N-methylethanamine], the mortality at 100 mg/m2 in [3], in experiment [4] and in experiment [5] was 80 to 100% in each case. The pest or weed control at 500 g/ha in the experiment on Spodoptera frugiperda turned out to be 83%. Further, the “efficacy (kill in %)” value with Lucilia cuprina stood at 80%. The pest or weed control at 0.02 mg with Boophilus microplus (setting [9]) is 100%. Further, in [5], the mortality at 20 mg/m2 lay within 80 to 100%.
Take `N#CCN1CCC(Oc2ccc(COc3ccc(Cl)c4ccccc34)cn2)C1` (stereo not shown) [Example 5, {3-[(5-{[(4-chloro-1-naphthyl)oxy]methyl}pyridin-2-yl)oxy]pyrrolidin-1-yl}acetonitrile]: the mortality at 20 mg/m2 in [3] and in experiment [4] was 80 to 100% throughout. Moreover, the pest or weed control at 500 g/ha came to 100% in the experiment with Phaedon cochleariae and 83% with Spodoptera frugiperda. Also, the “efficacy (kill in %)” value in the experiment on Lucilia cuprina was determined as 100%. Further, the mortality at 100 mg/m2 in experiment [4] lay within 80 to 100%. The pest or weed control at 0.02 mg in the experiment on Boophilus microplus (setting [9]) was determined as 100%.
`CON(C)CCOc1cnc(COc2ccc(Br)c3ccccc23)c(F)c1` [Example 21]: in the experiment with Ctenocephalides felis [1], the “efficacy (fleas dead or moribund)” value was 100%. In addition, the results for the efficacy in the experiment with Tetranychus urticae, in the experiment with Phaedon cochleariae (setting [6]) and in the experiment on Spodoptera frugiperda (setting [6]) were 90%, 100% and 100%, respectively. In the experiment on Rhipicephalus sanguineus, the “efficacy (ticks dead or moribund)” value is 100%. For the same compound, the “efficacy (kill in %)” value in the experiment on Ctenocephalides felis [2] was 80%; with Lucilia cuprina, 100%. The “efficacy (laying of fertile eggs)” value in the experiment on Boophilus microplus (setting [7]) amounted to 100%.
For the compound `CN(CC#N)CCOc1cnc(COc2ccc3oc4ccccc4c3c2)c(F)c1` [Example 29, {[2-({6-[(dibenzo[b,d]furan-2-yloxy)methyl]-5-fluoropyridin-3-yl}oxy)ethyl](methyl)amino}acetonitrile], the pest or weed control at 500 g/ha with Phaedon cochleariae and in the experiment with Spodoptera frugiperda was 100% each time. Besides, the “efficacy (kill in %)” value with Ctenocephalides felis [2] and in the experiment on Lucilia cuprina was 100% throughout. Moreover, in experiment [4], the mortality at 20 mg/m2 lay within 80 to 100%. The pest or weed control at 0.02 mg in the experiment on Boophilus microplus (setting [9]) is 100%.
For `CON(C)CCOc1cnc(COc2ccc(F)c(-c3ccccc3)c2)c(F)c1` [Example 71, 2-[(5-fluoro-6-{[(6-fluorobiphenyl-3-yl)oxy]methyl}pyridin-3-yl)oxy]-N-methoxy-N-methylethanamine], the “efficacy (fleas dead or moribund)” value with Ctenocephalides felis [1] is reported as 100%. In addition, the mortality at 20 mg/m2 in [3] (setting [8]), in [4] (setting [8]) and in [5] (setting [8]) was 80 to 100% in each case. The values for the pest or weed control at 500 g/ha in the experiment on Phaedon cochleariae (setting [6]) and in the experiment on Spodoptera frugiperda (setting [6]) were 83% and 100%, respectively. Also, the “efficacy (ticks dead or moribund)” value in the experiment with Rhipicephalus sanguineus is reported as 100%. Also, the “efficacy (kill in %)” value in the experiment on Lucilia cuprina is listed as 100%. Further, in the experiment on Boophilus microplus (application rate 20 μg/animal, after 7 days, read-out: efficacy (laying of fertile eggs)), the pest or weed control at 0.02 mg is 100%.
Consider `CON(C)CCOc1cnc(COc2ccc(Cl)c(-c3cccc(F)c3)c2)c(F)c1` [Example 61], for which, in the experiment with Ctenocephalides felis [1], the “efficacy (fleas dead or moribund)” value is 100%. Also, the efficacy in the experiment on Tetranychus urticae was found to be 90%; in the experiment with Spodoptera frugiperda (setting [6]), 100%. Moreover, in the experiment on Rhipicephalus sanguineus, the “efficacy (ticks dead or moribund)” value is on record as 100%. Further, the “efficacy (kill in %)” value worked out at 90% with Ctenocephalides felis [2] and 100% in the experiment on Lucilia cuprina. In the experiment on Boophilus microplus (setting [7]), the “efficacy (laying of fertile eggs)” value is on record as 100%.
